Experimental findings from patent US10457703B2, “Bile acid derivatives as FXR/TGR5 agonists and methods of use thereof” (ENANTA PHARMACEUTICALS, INC., priority 2015, dated 2019) are described below.

Where only a bound is given, the exact number is not on record here.

The assay has as its target human FXR (NR1H4) (Homo sapiens (Human), UniProt Q96RI1). Put plainly: Human FXR (NR1H4) Assay (Gal4 promoter driven luciferase reporter, Indigo Bioscience kit).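 For Efficacy (%): 100% equals the efficacy of CDCA; efficacy normalized to CDCA set as 100%.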 The format is cell-based. Particulars: for EC50: Human FXR (NR1H4) Assay, potency ranges; for Emax: read-out: Efficacy (%). Put shortly: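 CHO reporter cells expressing human FXR with an FXR-responsive luciferase reporter, treated with compound doses at 0.2% DMSO. Incubation lasted 22 h at 37 °C before luciferase detection reagent was added. Luminescence was then read.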

Sequence of human FXR (NR1H4) (Q96RI1 whole entry, the tested form may be a part): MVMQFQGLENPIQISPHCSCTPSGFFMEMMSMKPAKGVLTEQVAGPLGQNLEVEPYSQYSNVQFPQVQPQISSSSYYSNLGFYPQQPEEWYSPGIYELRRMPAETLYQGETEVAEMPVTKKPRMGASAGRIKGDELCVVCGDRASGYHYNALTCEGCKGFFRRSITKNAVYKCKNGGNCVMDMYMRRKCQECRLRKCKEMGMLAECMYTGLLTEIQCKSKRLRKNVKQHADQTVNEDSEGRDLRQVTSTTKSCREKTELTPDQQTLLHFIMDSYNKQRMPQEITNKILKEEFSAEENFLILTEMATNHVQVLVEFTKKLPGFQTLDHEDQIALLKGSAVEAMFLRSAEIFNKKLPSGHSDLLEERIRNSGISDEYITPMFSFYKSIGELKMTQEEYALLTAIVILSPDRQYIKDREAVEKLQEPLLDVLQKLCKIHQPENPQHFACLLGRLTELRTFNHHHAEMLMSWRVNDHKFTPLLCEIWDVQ

Regarding `CC[C@H]1[C@@H](O)[C@@H]2[C@H](CC[C@]3(C)[C@@H]([C@H](C)CCOC(=O)NS(=O)(=O)c4cccc(F)c4)CC[C@@H]23)[C@@]2(C)CC[C@@H](O)C[C@@H]12` [Example 66], the concentration for a half-maximal effect (EC50) is 100 to 1000 nM and the Emax turned out to be 320%.
On the same counts, the results for `CC[C@H]1[C@@H](O)[C@@H]2[C@H](CC[C@]3(C)[C@@H]([C@H](C)CCOC(=O)NCc4ccc(C(=O)O)cc4)CC[C@@H]23)[C@@]2(C)CC[C@@H](O)C[C@@H]12` [Example 159] are 100 to 1000 nM and 221%.
As for `CC[C@H]1[C@@H](O)[C@@H]2[C@H](CC[C@]3(C)[C@@H]([C@H](C)CCOC(=O)NS(=O)(=O)c4ccccc4F)CC[C@@H]23)[C@@]2(C)CC[C@@H](O)C[C@@H]12` [Example 71], the EC50 lay in the range of 100 to 1000 nM and the Emax was found to be 317%.
On the same counts, the results for `CC[C@H]1[C@@H](O)[C@@H]2[C@H](CC[C@]3(C)[C@@H]([C@H](C)COC(=O)NS(=O)(=O)c4ccc(C5CCCCC5)cc4)CC[C@@H]23)[C@@]2(C)CC[C@@H](O)C[C@@H]12` [Example 11] are under 100 nM and 224%.
On the same counts, the results for `CC[C@H]1[C@@H](O)[C@@H]2[C@H](CC[C@]3(C)[C@@H]([C@H](C)CCOC(=O)NS(=O)(=O)c4cccc(OC(F)(F)F)c4)CC[C@@H]23)[C@@]2(C)CC[C@@H](O)C[C@@H]12` [Example 63] are under 100 nM and 396%.
As to `CC[C@H]1[C@@H](O)[C@@H]2[C@H](CC[C@]3(C)[C@@H]([C@H](C)CCOC(=O)NCCCC(=O)OC)CC[C@@H]23)[C@@]2(C)CC[C@@H](O)C[C@@H]12` [Example 187], the concentration for a half-maximal effect (EC50) lay in the range of 100 to 1000 nM and the Emax was found to be 421%.
The like results for `CC[C@H]1[C@@H](O)[C@@H]2[C@H](CC[C@]3(C)[C@@H]([C@H](C)CCOC(=O)N4CCCC4)CC[C@@H]23)[C@@]2(C)CC[C@@H](O)C[C@@H]12` [Example 147] were, in that order, under 100 nM and 228%.
The like results for `CC[C@H]1[C@@H](O)[C@@H]2[C@H](CC[C@]3(C)[C@@H]([C@H](C)CCOC(=O)N[C@@H]4CCC[C@@H]4O)CC[C@@H]23)[C@@]2(C)CC[C@@H](O)C[C@@H]12` [Example 206] were, in that order, under 100 nM and 174%.
The like results for `CC[C@H]1[C@@H](O)[C@@H]2[C@H](CC[C@]3(C)[C@@H]([C@H](C)COC(=O)NS(=O)(=O)c4ccc(-c5ccccc5)s4)CC[C@@H]23)[C@@]2(C)CC[C@@H](O)C[C@@H]12` [Example 10] were, in that order, under 100 nM and 259%.
Consider `CC[C@H]1[C@@H](O)[C@@H]2[C@H](CC[C@]3(C)[C@@H]([C@H](C)COC(=O)NS(=O)(=O)c4cnc5ccccc5c4)CC[C@@H]23)[C@@]2(C)CC[C@@H](O)C[C@@H]12` [Example 24], for which the EC50 is under 100 nM and the Emax amounted to 193%.
`CC[C@H]1[C@@H](O)[C@@H]2[C@H](CC[C@]3(C)[C@@H]([C@H](C)CCCOC(=O)NS(=O)(=O)c4ccc(C)cc4)CC[C@@H]23)[C@@]2(C)CC[C@@H](O)C[C@@H]12` [Example 1]: the EC50 was 100 to 1000 nM and the Emax was 422%.
As to `CC[C@H]1[C@@H](O)[C@@H]2[C@H](CC[C@]3(C)[C@@H]([C@H](C)CCOC(=O)NS(=O)(=O)c4ccc5ccccc5c4)CC[C@@H]23)[C@@]2(C)CC[C@@H](O)C[C@@H]12` [Example 88], the concentration for a half-maximal effect (EC50) was under 100 nM and the Emax amounted to 236%.
Take `CC[C@H]1[C@@H](O)[C@@H]2[C@H](CC[C@]3(C)[C@@H]([C@H](C)CCOC(=O)N4CCC(CC)(CO)CC4)CC[C@@H]23)[C@@]2(C)CC[C@@H](O)C[C@@H]12` [Example 217]: the EC50 is under 100 nM and the Emax came out at 337%.
Consider `CC[C@H]1[C@@H](O)[C@@H]2[C@H](CC[C@]3(C)[C@@H]([C@H](C)CCOC(=O)NS(=O)(=O)c4ccc(F)cc4)CC[C@@H]23)[C@@]2(C)CC[C@@H](O)C[C@@H]12` [Example 46], for which the concentration giving a half-maximal response (EC50) was under 100 nM and the Emax stood at 267%.
The like results for `CC[C@H]1[C@@H](O)[C@@H]2[C@H](CC[C@]3(C)[C@@H]([C@H](C)CCOC(=O)NS(=O)(=O)c4ncccn4)CC[C@@H]23)[C@@]2(C)CC[C@@H](O)C[C@@H]12` [Example 104-d] were, in that order, 1000 to 10000 nM and 35%.
Turning to `CC[C@H]1[C@@H](O)[C@@H]2[C@H](CC[C@]3(C)[C@@H]([C@H](C)COC(=O)NS(=O)(=O)c4ccc(-c5ncco5)nc4)CC[C@@H]23)[C@@]2(C)CC[C@@H](O)C[C@@H]12` [Example 44-o], the 50% effective concentration (EC50) was 100 to 1000 nM and the Emax was 292%.
On the same counts, the results for `CC[C@H]1[C@@H](O)[C@@H]2[C@H](CC[C@]3(C)[C@@H]([C@H](C)CCCOC(=O)Nc4ccc(C(C)(C)C)cc4)CC[C@@H]23)[C@@]2(C)CC[C@@H](O)C[C@@H]12` [Example 121] are 1000 to 10000 nM and 8%.
On the same counts, the results for `CC[C@H]1[C@@H](O)[C@@H]2[C@H](CC[C@]3(C)[C@@H]([C@H](C)COC(=O)NS(=O)(=O)c4ccc(-c5ccncc5)cc4)CC[C@@H]23)[C@@]2(C)CC[C@@H](O)C[C@@H]12` [Example 35] are 100 to 1000 nM and 152%.
Regarding `CC[C@H]1[C@@H](O)[C@@H]2[C@H](CC[C@]3(C)[C@@H]([C@H](C)COC(=O)NS(=O)(=O)c4ccc(N5C6CCC5CC6)cc4)CC[C@@H]23)[C@@]2(C)CC[C@@H](O)C[C@@H]12` [Example 44-a], the concentration giving a half-maximal response (EC50) is under 100 nM and the Emax worked out at 182%.
Regarding `CC[C@H]1[C@@H](O)[C@@H]2[C@H](CC[C@]3(C)[C@@H]([C@H](C)COC(=O)NS(=O)(=O)c4ccc(-c5ncccn5)cc4)CC[C@@H]23)[C@@]2(C)CC[C@@H](O)C[C@@H]12` [Example 36], the EC50 was under 100 nM and the Emax came out at 205%.
For `CC[C@H]1[C@@H](O)[C@@H]2[C@H](CC[C@]3(C)[C@@H]([C@H](C)CCOC(=O)NS(=O)(=O)C[C@]45CCC(CC4=O)C5(C)C)CC[C@@H]23)[C@@]2(C)CC[C@@H](O)C[C@@H]12` [Example 58], the 50% effective concentration (EC50) was under 100 nM and the Emax is 366%.
On the same counts, the results for `CC[C@H]1[C@@H](O)[C@@H]2[C@H](CC[C@]3(C)[C@@H]([C@H](C)COC(=O)NS(=O)(=O)c4ccc(N5CCC5)nc4)CC[C@@H]23)[C@@]2(C)CC[C@@H](O)C[C@@H]12` [Example 44-c] are under 100 nM and 183%.
The like results for `CC[C@H]1[C@@H](O)[C@@H]2[C@H](CC[C@]3(C)[C@@H]([C@H](C)CCCOC(=O)NC4CCCCC4)CC[C@@H]23)[C@@]2(C)CC[C@@H](O)C[C@@H]12` [Example 126] were, in that order, 1000 to 10000 nM and 187%.
The like results for `CC[C@H]1[C@@H](O)[C@@H]2[C@H](CC[C@]3(C)[C@@H]([C@H](C)COC(=O)N4CCCCC4)CC[C@@H]23)[C@@]2(C)CC[C@@H](O)C[C@@H]12` [Example 201] were, in that order, 100 to 1000 nM and 1%.
